{"source": "patent US11167012B2", "about": "“Peptide inhibition of CCR3-mediated diseases or conditions” (The Board of Trustees of the University of Illinois, priority 2015, dated 2021)", "key": {"ERK1/2 phosphorylation": {"tested_on": "ERK1/2 phosphorylation", "assay": "Signal transduction assay, Western blotting of phospho-ERK1/2 in AML14.3D10-CCR3 cells", "type": "cell-based, human", "description": "Phospho-ERK was detected using a specific antibody. The membrane was stripped and reprobed for total ERK1/2 as loading control. Immunoblots were quantified by densitometry using ImageJ. PD: PD184161, MEK inhibitor.\nAML14.3D10-CCR3 cells were serum starved for 16 hours. Cells were pretreated with vehicle control, R3-2-1 or PD184161 for 30 minutes at 37° C., and subsequently stimulated with 8 nM CCL5 or CCL11 for 2 minutes. Stimulation was stopped by adding ice cold PBS. Cells were centrifuged and lysed in RIPA buffer containing protease and phosphatase inhibitors. Cell lysates were resolved on a 12% SDS-PAGE gel (10 μg/lane), transferred to PVDF membrane and blocked in 5% milk. Phospho-ERK1/2 was detected using rabbit monoclonal antibody (clone D13.14.4E, Cell Signaling Technology, Danvers, Mass.) and secondary goat anti-rabbit IgG-HRP (Santa Cruz Biotechnology, Dallas, Tex.). As a loading control, the membrane was subsequently stripped and re-probed with an antibody against total ERK1/2 (clone 127F5, Cell Signaling Technology).\nConcurrent to ligand binding and activation, CCR3 undergoes ligand-induced desensitization and internalization (Zimmermann, et al. (1999) J. Biol. Chem. 274:12611-12618). As part of the desensitization process, CCR3 is degraded. This is thought to occur via β-arrestin recruitment to phosphorylated CCR3 and subsequent sequestration of the receptor into endosomal compartments, eventually leading to degradation. β-arrestin signaling is central in this process and is characterized by a late activation of signaling pathways such as MAPK/ERK1/2, in contrast to acute activation by G proteins. […] Therefore, the R3-2-1 peptide is a biased antagonist in that it inhibits the […] of CCL11 ligand-induced β-arrestin signaling, whereas the small molecule inhibitors are unbiased antagonists."}, "CCR3": {"target": "T1, CCR3 (Homo sapiens, UniProt P51677)", "T1 sequence (P51677 1-355)": "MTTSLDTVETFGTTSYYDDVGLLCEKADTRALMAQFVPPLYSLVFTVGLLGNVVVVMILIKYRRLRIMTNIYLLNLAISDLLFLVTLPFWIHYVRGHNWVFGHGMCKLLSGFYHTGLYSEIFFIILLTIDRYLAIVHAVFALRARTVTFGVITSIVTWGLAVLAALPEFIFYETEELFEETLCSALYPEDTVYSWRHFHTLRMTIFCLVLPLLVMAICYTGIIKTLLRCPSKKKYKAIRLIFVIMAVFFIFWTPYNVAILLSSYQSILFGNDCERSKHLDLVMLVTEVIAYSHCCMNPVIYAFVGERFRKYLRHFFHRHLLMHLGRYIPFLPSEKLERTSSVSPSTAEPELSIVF", "assay": "NMR (13C HSQC) evaluation of binding to CCR3 membrane preparations", "set-up": "expressed in transfected cells; host or cells: 4DE4 mouse pre-B cell lymphoma line", "conditions": "10 μM R321, 1 μM CCL11, CCR3 membrane preps 0.25 mg/ml", "description": "FIG. 6A to FIG. 6E show NMR evaluation of the binding of R3-2-1 and CCL11/eotaxin-1 to CCR3 membrane preparations. ^13C HSQC spectra of ^13C-reductively methylated CCR3 membrane preps (0.25 mg/ml) were recorded with 1 μM CCL11 and 10 μM R321. […] Black arrows indicate the differences in chemical shifts.\nLigand binding to GPCR induces conformational transitions in the receptor that activate G-proteins and β-arrestin recruitment. […] Because R3-2-1 is an analog of the second transmembrane helix of CCR3, it is expected that R3-2-1 competes with the native helix 2 for binding to helices 1 and 3. Binding to helix 3 may disrupt the structure and orientation of the DRY motif in intracellular loop 2, inhibiting G-proteins."}, "[1]": {"tested_on": "eosinophil recruitment into the esophageal epithelium", "assay": "Mouse model of EoE, oxazalone-challenged L2-IL5 transgenic mice", "type": "in vivo", "conditions": "i.v., 24 hours after last OXA challenge", "description": "Skin sensitized L2-IL5 transgenic mice received topical esophageal oxazalone (OXA) challenges by gavage (i.e.) on days 5, 8 and 12 (FIG. 5A). R3-2-1 peptide nanoparticles, control peptide (R3-2-3) or CCR3 inhibitor UCB35625 (UCB) were given immediately before on days 5, 8, 10 and 12 (FIG. 5A). Esophageal eosinophilia was assessed 24 hours after the last OXA challenge and treatment (day 13). […] Error bars represent SEM.\nMice were treated i.v. with R3-2-1 peptide, scrambled R3-2-3 control peptide ([…]-PEG27-NH2; SEQ ID NO:24), or the allosteric non-selective CCR3 inhibitor, UCB35625. Eosinophil recruitment into the esophageal epithelium was assessed 24 hours after the last OXA challenge by counting eosinophils in 9 high power fields (hpf) covering the total esophagus or 3 hpf covering the distal esophagus."}}, "note": "Entries after “also recorded” stand apart in the source; their conditions may differ. Where a SMILES comes first, the peptide text is derived from it. The star is where a group is joined. X1 = NC(=O)CCOCCOCCOCCOCCOCCOCCOCCOCCOCCOCCOCCOCCOCCOCCOCCOCCOCCOCCOCCOCCOCCOCCOCCOCCOCCOCCOCCOCCN*"}
{"compound": "CC[C@H](C)[C@H](NC(=O)[C@H](Cc1c[nH]c2ccccc12)NC(=O)[C@H](Cc1ccccc1)NC(=O)[C@@H]1CCCN1C(=O)[C@H](CC(C)C)NC(=O)[C@@H](NC(=O)[C@@H](NC(=O)[C@H](CC(C)C)NC(=O)[C@H](Cc1ccccc1)NC(=O)[C@H](CC(C)C)NC(=O)[C@@H](N)CC(C)C)C(C)C)[C@@H](C)O)C(=O)N[C@@H](Cc1c[nH]cn1)C(=O)N[C@@H](Cc1ccc(O)cc1)C(=O)N[C@H](C(=O)N[C@@H](CCCNC(=N)N)C(=O)NCC(=O)N[C@@H](Cc1c[nH]cn1)C(=O)N[C@@H](CC(N)=O)C(=O)N[C@@H](Cc1c[nH]c2ccccc12)C(=O)N[C@H](C(=O)N[C@@H](Cc1ccccc1)C(=O)NCC(=O)N[C@@H](Cc1c[nH]cn1)C(=O)N[C@@H](CC(=O)O)C(=O)N[C@@H](CC(=O)O)C(=O)N[C@@H](CC(=O)O)C(=O)NCCOCCOCCOCCOCCOCCOCCOCCOCCOCCOCCOCCOCCOCCOCCOCCOCCOCCOCCOCCOCCOCCOCCOCCOCCOCCOCCOCCOCCC(N)=O)C(C)C)C(C)C", "note": "[Peptide R3-2-1] (H-LLFLVTLPFWIHYVRGHNWVFGHDDD-X1; N-terminus assumed)", "values": [{"measurement": "acute (2-5 minutes) and late (30 minutes) phase phosphorylation of ERK1/2", "setting": "ERK1/2 phosphorylation; 10 μM, CCL11-induced", "result": "inhibits only acute phosphorylation of ERK1/2"}, {"measurement": "inhibition of ERK1/2 phosphorylation induced by RANTES and eotaxin", "setting": "ERK1/2 phosphorylation; 2 and 10 μM, 8 nM CCL5 or CCL11 for 2 minutes", "result": "inhibits activation of the MAPK pathway; also recorded: attenuated"}, {"measurement": "binding to CCR3 by NMR chemical shift changes", "setting": "CCR3", "result": "chemical shift changes indicative of binding"}, {"measurement": "eosinophil recruitment into distal and total esophageal epithelium", "setting": "[1]", "result": "significantly blocked eosinophil recruitment; also recorded: significantly reduced eosinophil recruitment"}]}
